Test system: 217524-143-R1-J4-PDC spheroids with HUVEC/MSC, viability
Assay: Anticancer human tumor 217524-143-R1-J4-PDC patient-derived pancreatic carcinoma cell line growth inhibition [CLK]
Conditions: for IC50: curve of first compound; for viability, T/C: stronger effect = lower value
Procedure, shortened: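 Patient-derived tumor cells grown as complex spheroids with HUVEC endothelial cells and mesenchymal stem cells, treated with drug combinations. Concentrations descend in half-log steps from near clinical Cmax, or from 10 microM if Cmax unknown.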

[1] = second compound 0.0316 µM, first compound 0.0316 µM
[2] = second compound 0.0316 µM, first compound 0.1 µM
[3] = second compound 0.0316 µM, first compound 0.316 µM
[4] = second compound 0.0316 µM, first compound 1 µM
[5] = second compound 0.0316 µM, first compound 3.16 µM
[6] = second compound 0.0316 µM, first compound 10 µM
[7] = second compound 0.1 µM, first compound 0.0316 µM
[8] = second compound 0.1 µM, first compound 0.1 µM
[9] = second compound 0.1 µM, first compound 0.316 µM
[10] = second compound 0.1 µM, first compound 1 µM
[11] = second compound 0.1 µM, first compound 3.16 µM
[12] = second compound 0.1 µM, first compound 10 µM
[13] = second compound 0.316 µM, first compound 0.0316 µM
[14] = second compound 0.316 µM, first compound 0.1 µM
[15] = second compound 0.316 µM, first compound 0.316 µM
[16] = second compound 0.316 µM, first compound 1 µM
[17] = second compound 0.316 µM, first compound 3.16 µM
[18] = second compound 0.316 µM, first compound 10 µM
[19] = second compound 1 µM, first compound 0.0316 µM
[20] = second compound 1 µM, first compound 0.1 µM
[21] = second compound 1 µM, first compound 0.316 µM
[22] = second compound 1 µM, first compound 1 µM
[23] = second compound 1 µM, first compound 3.16 µM
[24] = second compound 1 µM, first compound 10 µM
[25] = second compound 3.16 µM, first compound 0.0316 µM
[26] = second compound 3.16 µM, first compound 0.1 µM
[27] = second compound 3.16 µM, first compound 0.316 µM
[28] = second compound 3.16 µM, first compound 1 µM
[29] = second compound 3.16 µM, first compound 3.16 µM
[30] = second compound 3.16 µM, first compound 10 µM
[31] = second compound 10 µM, first compound 0.0316 µM
[32] = second compound 10 µM, first compound 0.1 µM
[33] = second compound 10 µM, first compound 0.316 µM
[34] = second compound 10 µM, first compound 1 µM
[35] = second compound 10 µM, first compound 3.16 µM
[36] = second compound 10 µM, first compound 10 µM
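Note: spheroids exposed to agents for seven days before reading.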
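Throughout, for viability, T/C: 100% = DMSO vehicle control viability.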

Compound: CC(C)CC(NC(=O)C(Cc1ccccc1)NC(=O)c1cnccn1)B(O)O (stereo not drawn) + CNC(=O)c1ccc(Nc2nc(OC3CCCC3)c3c(-c4ccc5nc(C)oc5c4)c[nH]c3n2)c(OC)c1
- IC50 (second compound 0.0316 µM): 5.06 nM
- IC50 (second compound 0.1 µM): 3.04 nM
- IC50 (second compound 0.316 µM): < 0.949 nM
- IC50 (second compound 1 µM): < 0.949 nM
- IC50 (second compound 3.16 µM): < 0.949 nM
- IC50 (second compound 10 µM): < 0.949 nM
- viability, T/C (second compound 0.0316 µM, first compound 0.000949 µM): 90.4%
- viability, T/C (second compound 0.0316 µM, first compound 0.003 µM): 71.8%
- viability, T/C (second compound 0.0316 µM, first compound 0.00949 µM): 23.7%
- viability, T/C (second compound 0.0316 µM, first compound 0.03 µM): 6.76%
- viability, T/C (second compound 0.0316 µM, first compound 0.0949 µM): 3.97%
- viability, T/C (second compound 0.0316 µM, first compound 0.3 µM): 1.1%
- viability, T/C (second compound 0.1 µM, first compound 0.000949 µM): 45.6%
- viability, T/C (second compound 0.1 µM, first compound 0.003 µM): 55.1%
- viability, T/C (second compound 0.1 µM, first compound 0.00949 µM): 17.5%
- viability, T/C (second compound 0.1 µM, first compound 0.03 µM): 5.06%
- viability, T/C (second compound 0.1 µM, first compound 0.0949 µM): 2.97%
- viability, T/C (second compound 0.1 µM, first compound 0.3 µM): 1.89%
- viability, T/C (second compound 0.316 µM, first compound 0.000949 µM): 40.3%
- viability, T/C (second compound 0.316 µM, first compound 0.003 µM): 47.1%
- viability, T/C (second compound 0.316 µM, first compound 0.00949 µM): 18.7%
- viability, T/C (second compound 0.316 µM, first compound 0.03 µM): 4.6%
- viability, T/C (second compound 0.316 µM, first compound 0.0949 µM): 3.43%
- viability, T/C (second compound 0.316 µM, first compound 0.3 µM): 2.04%
- viability, T/C (second compound 1 µM, first compound 0.000949 µM): 29.1%
- viability, T/C (second compound 1 µM, first compound 0.003 µM): 38.5%
- viability, T/C (second compound 1 µM, first compound 0.00949 µM): 7.88%
- viability, T/C (second compound 1 µM, first compound 0.03 µM): 2.84%
- viability, T/C (second compound 1 µM, first compound 0.0949 µM): 2.06%
- viability, T/C (second compound 1 µM, first compound 0.3 µM): 1.44%
- viability, T/C (second compound 3.16 µM, first compound 0.000949 µM): 25.7%
- viability, T/C (second compound 3.16 µM, first compound 0.003 µM): 41.2%
- viability, T/C (second compound 3.16 µM, first compound 0.00949 µM): 5.46%
- viability, T/C (second compound 3.16 µM, first compound 0.03 µM): 2.33%
- viability, T/C (second compound 3.16 µM, first compound 0.0949 µM): 1.76%
- viability, T/C (second compound 3.16 µM, first compound 0.3 µM): 1.27%
- viability, T/C (second compound 10 µM, first compound 0.000949 µM): 24.6%
- viability, T/C (second compound 10 µM, first compound 0.003 µM): 34.8%
- viability, T/C (second compound 10 µM, first compound 0.00949 µM): 6.06%
- viability, T/C (second compound 10 µM, first compound 0.03 µM): 2.66%
- viability, T/C (second compound 10 µM, first compound 0.0949 µM): 1.59%
- viability, T/C (second compound 10 µM, first compound 0.3 µM): 0.75%

Compound: CC1(C)CCC(CN2CCN(c3ccc(C(=O)NS(=O)(=O)c4ccc(NCC5CCOCC5)c([N+](=O)[O-])c4)c(Oc4cnc5[nH]ccc5c4)c3)CC2)=C(c2ccc(Cl)cc2)C1 + CNC(=O)c1ccc(Nc2nc(OC3CCCC3)c3c(-c4ccc5nc(C)oc5c4)c[nH]c3n2)c(OC)c1
- IC50 (second compound 0.0316 µM): > 10000 nM
- IC50 (second compound 0.1 µM): < 31.6 nM
- IC50 (second compound 0.316 µM): < 31.6 nM
- IC50 (second compound 1 µM): < 31.6 nM
- IC50 (second compound 3.16 µM): < 31.6 nM
- IC50 (second compound 10 µM): < 31.6 nM
- viability, T/C [1]: 86.2%
- viability, T/C [2]: 87.7%
- viability, T/C [3]: 81.2%
- viability, T/C [4]: 79%
- viability, T/C [5]: 88.5%
- viability, T/C [6]: 79.3%
- viability, T/C [7]: 42.1%
- viability, T/C [8]: 45%
- viability, T/C [9]: 38.1%
- viability, T/C [10]: 46.1%
- viability, T/C [11]: 39.1%
- viability, T/C [12]: 37.7%
- viability, T/C [13]: 34.1%
- viability, T/C [14]: 40.7%
- viability, T/C [15]: 38.7%
- viability, T/C [16]: 38.2%
- viability, T/C [17]: 36.9%
- viability, T/C [18]: 37.1%
- viability, T/C [19]: 24.4%
- viability, T/C [20]: 29.3%
- viability, T/C [21]: 31.6%
- viability, T/C [22]: 27.4%
- viability, T/C [23]: 31.4%
- viability, T/C [24]: 25.9%
- viability, T/C [25]: 27.4%
- viability, T/C [26]: 28.9%
- viability, T/C [27]: 24.1%
- viability, T/C [28]: 27.2%
- viability, T/C [29]: 29.1%
- viability, T/C [30]: 22.3%
- viability, T/C [31]: 23.1%
- viability, T/C [32]: 25.7%
- viability, T/C [33]: 24.9%
- viability, T/C [34]: 26.4%
- viability, T/C [35]: 26.7%
- viability, T/C [36]: 24.9%

Compound: CC1COCCN1c1cc(C2(S(C)(=N)=O)CC2)nc(-c2ccnc3[nH]ccc23)n1 (stereo not drawn) + CNC(=O)c1ccc(Nc2nc(OC3CCCC3)c3c(-c4ccc5nc(C)oc5c4)c[nH]c3n2)c(OC)c1
- IC50 (second compound 0.0316 µM): 1970 nM
- IC50 (second compound 0.1 µM): < 31.6 nM
- IC50 (second compound 0.316 µM): < 31.6 nM
- IC50 (second compound 1 µM): < 31.6 nM
- IC50 (second compound 3.16 µM): < 31.6 nM
- IC50 (second compound 10 µM): < 31.6 nM
- viability, T/C [1]: 85.7%
- viability, T/C [2]: 93.5%
- viability, T/C [3]: 71.4%
- viability, T/C [4]: 76.3%
- viability, T/C [5]: 31.8%
- viability, T/C [6]: 22.5%
- viability, T/C [7]: 36.8%
- viability, T/C [8]: 43.5%
- viability, T/C [9]: 37.8%
- viability, T/C [10]: 29.2%
- viability, T/C [11]: 26.5%
- viability, T/C [12]: 19.7%
- viability, T/C [13]: 42.2%
- viability, T/C [14]: 32.4%
- viability, T/C [15]: 34.4%
- viability, T/C [16]: 28.1%
- viability, T/C [17]: 20.1%
- viability, T/C [18]: 15.1%
- viability, T/C [19]: 29.9%
- viability, T/C [20]: 27.7%
- viability, T/C [21]: 28.9%
- viability, T/C [22]: 18.1%
- viability, T/C [23]: 16.3%
- viability, T/C [24]: 12.3%
- viability, T/C [25]: 26.7%
- viability, T/C [26]: 26%
- viability, T/C [27]: 24.7%
- viability, T/C [28]: 20.2%
- viability, T/C [29]: 10.9%
- viability, T/C [30]: 9.73%
- viability, T/C [31]: 28.1%
- viability, T/C [32]: 26.4%
- viability, T/C [33]: 21.7%
- viability, T/C [34]: 17.6%
- viability, T/C [35]: 12.9%
- viability, T/C [36]: 8.77%

Compound: O=C(c1cc(Cc2n[nH]c(=O)c3ccccc23)ccc1F)N1CCN(C(=O)C2CC2)CC1 + CNC(=O)c1ccc(Nc2nc(OC3CCCC3)c3c(-c4ccc5nc(C)oc5c4)c[nH]c3n2)c(OC)c1
- IC50 (second compound 0.0316 µM): > 10000 nM
- IC50 (second compound 0.1 µM): < 31.6 nM
- IC50 (second compound 0.316 µM): < 31.6 nM
- IC50 (second compound 1 µM): < 31.6 nM
- IC50 (second compound 3.16 µM): < 31.6 nM
- IC50 (second compound 10 µM): < 31.6 nM
- viability, T/C [1]: 83.2%
- viability, T/C [2]: 82.8%
- viability, T/C [3]: 95.6%
- viability, T/C [4]: 115%
- viability, T/C [5]: 109%
- viability, T/C [6]: 78.5%
- viability, T/C [7]: 44.3%
- viability, T/C [8]: 40.1%
- viability, T/C [9]: 45.6%
- viability, T/C [10]: 44.1%
- viability, T/C [11]: 46.2%
- viability, T/C [12]: 46.3%
- viability, T/C [13]: 37.4%
- viability, T/C [14]: 42.7%
- viability, T/C [15]: 35.4%
- viability, T/C [16]: 36.1%
- viability, T/C [17]: 38.7%
- viability, T/C [18]: 51.8%
- viability, T/C [19]: 29.4%
- viability, T/C [20]: 30.1%
- viability, T/C [21]: 28%
- viability, T/C [22]: 32.3%
- viability, T/C [23]: 24.2%
- viability, T/C [24]: 25.6%
- viability, T/C [25]: 27%
- viability, T/C [26]: 23.7%
- viability, T/C [27]: 27.8%
- viability, T/C [28]: 26.5%
- viability, T/C [29]: 28.4%
- viability, T/C [30]: 29.4%
- viability, T/C [31]: 24.7%
- viability, T/C [32]: 29.3%
- viability, T/C [33]: 23.4%
- viability, T/C [34]: 24.6%
- viability, T/C [35]: 30.7%
- viability, T/C [36]: 24.7%

Reference: PubChem BioAssay AID2060624 (Molecular Pharmacology Branch, DTP, NCI, 2025)
